From patent US20060204530A1, “Benzoyl peroxide compositions and methods of use” (JR CHEM, LLC, priority 2005, published 2006)

Assay: Solubility of benzoyl peroxide in the disclosed solvents
Assay type: physicochemical
Conditions: room temperature
Protocol: In embodiments, benzoyl peroxide can be added to the solvents to form a mixture at room temperature, e.g., at a temperature of 25 to about 27° C. Additionally, the benzoyl peroxide/solvent mixture also can be added to other ingredients to form desired products, e.g., emulsions, lotions, creams or gels at low temperatures. […] However the key difference between the disclosed prior art and the present compositions is that the benzoyl peroxide will actively go into solution at levels as high as 10% by weight of the total formulation. These solutions can offer new clear products of increased efficacy.

## O=C(OOC(=O)c1ccccc1)c1ccccc1 [benzoyl peroxide]
  level at which benzoyl peroxide goes into solution: ≤ 10 % by weight of the total formulation
